Reference: patent US10632119B2, “Fused bicyclic 2,4-diaminopyrimidine derivative as a dual ALK and FAK inhibitor” (priority 2012, dated 2020)
In brackets after ≈: the same amount, converted by molar mass. Like-named read-outs stand apart in the source and are kept apart here.

Assays:
Muscarinic M2 = Muscarinic M2 (Homo sapiens, UniProt P08172); test: Receptor selectivity (Cerep); format: binding
Muscarinic M3 = Muscarinic M3 (Homo sapiens, UniProt P20309); test: Receptor selectivity (Cerep); format: binding
Muscarinic M4 = Muscarinic M4 (Homo sapiens, UniProt P08173); test: Receptor selectivity (Cerep); format: binding
Neurokinin NK1 = Neurokinin NK1 (Homo sapiens, UniProt P25103); test: Receptor selectivity (Cerep); format: binding
hERG = hERG (Homo sapiens, UniProt Q12809); test: hERG patch clamp; format: cell-based
Equilibrium solubility = format: physicochemical; conditions: thermodynamic from solid
[1] = In vitro metabolic stability, mouse; format: in vitro ADME; conditions: mouse (M); read-out: In vitro metabolic stability t1/2
[2] = In vitro metabolic stability, human; format: in vitro ADME; conditions: human (H); read-out: In vitro metabolic stability t1/2
CYP 1A2 = CYP 1A2 (Homo sapiens, UniProt P05177); test: CYP inhibition; format: in vitro ADME
CYP 2C9 = CYP 2C9 (Homo sapiens, UniProt P11712); test: CYP inhibition; format: in vitro ADME
CYP 2C19 = CYP 2C19 (Homo sapiens, UniProt P33261); test: CYP inhibition; format: in vitro ADME
Caco-2 permeability = format: in vitro ADME; conditions: human
Protein binding, mouse = format: in vitro ADME; conditions: mouse (M)
Protein binding, dog = format: in vitro ADME; conditions: dog (D)
Protein binding, human = format: in vitro ADME; conditions: human (H)
Rat bioavailability = conditions: in vivo, po
Mouse bioavailability = format: in vivo
Monkey bioavailability = conditions: in vivo, po
[3] = 4-week oral toxicity and toxicokinetic study of CEP-37440 in monkeys, 4-week recovery; format: in vivo, cynomolgus monkeys (Macaca fascicularis)
Protocol: Male and female cynomolgus monkeys (Macaca fascicularis) were assigned to 4 groups (3-treated and a vehicle control group) consisting of 5 monkeys/sex/group. Dose levels evaluated in this study were 0 (pH-adjusted reverse osmosis water), 2.5, 7.5, and 20 mg/kg/day. The dosing volume was 5 mL/kg. CEP-37440 was administered as the trihydrochloride dihydrate salt form. After completion of the dosing phase, 3 monkeys/sex/group were euthanized and 2 monkeys/sex/group continued on a treatment-free recovery phase for an additional 4 weeks.

[4] = test system: Sup-M2 ALCL tumor xenografts; test: Anti-tumor efficacy, NPM-ALK positive Sup-M2 ALCL xenograft; conditions: for anti-tumor efficacy: 12 days
Protocol: (§1) Anti-Tumor Efficacy Studies—General Protocol
(§2) The tumor volumes were then calculated with the formula of 0.5236*L*W*(L+W)/2.
(§3) Anti-Tumor Efficacy in NPM-ALK Positive Sup-M2 and Karpas-299 ALCL Tumor Xenograft Models in Mice

[5] = test system: Karpas-299 tumor xenografts; conditions: for anti-tumor efficacy: amorphous HCl salt
Protocol: as §1, §2, §3

[6] = test system: Detroit 562 HNSCC xenografts
Text: (§4) Anti-Tumor Efficacy Studies in Human Tumor Xenografts of Hormone-Independent Prostate Carcinoma, NSCL Carcinoma and HNSC Carcinoma
(§5) The human prostate carcinoma cell lines, CWR22 and PC3, and human head and neck squamous cell carcinoma cell line Detroit 562 were obtained from American Tissue Culture Collection (ATCC, Manassas, Va.). […] Human non-small cell lung cancer cell line HCC-827 and human breast cancer cell line BT474 were also purchased from the ATCC (Manassas, Va.) and cultured in RPMI (Cat #10-040, Mediatech Inc, Manassas, Va.) with 10% FBS. The rabbit phospho-FAK (Tyr397) (Cat #3283) and FAK antibodies (Cat #3285) were purchased from Cell Signaling Technology (Beverly, Mass.).
(§6) The mice were then monitored daily.
as §2

[7] = test system: HCC-827 human NSCL carcinoma xenografts
Text: as §4, §5, §6, §2

[8] = test system: PC-3 prostate tumor xenografts
Text: as §4, §5, §6, §2

[9] = 10 days
in vivo = conditions: both, rat, po
Protocol: Animals were dosed via oral gavage.
Assessment of toxicity was based on mortality, clinical observations, body weights, body weight changes, food consumption, ophthalmic examinations, and clinical and anatomic pathology. Blood samples were collected for toxicokinetic evaluations.

[10] = test system: NCI-H2228 NSCLC tumor xenografts; test: Anti-tumor activity, EML4-ALK positive NCI-H2228 NSCLC xenograft
Text: Anti-Tumor Activity in EML4-ALK Positive (NCI-H2228 and NCI-H3122) NSCLC Tumor Xenografts in Mice with Oral Dosing
Generation of EML4-ALK-positive and EML4-ALK-negative NSCLC Subcutaneous Tumor Xenografts in Scid Mice Female Scid/Beige mice (6-8 weeks, Taconic, Hudson. N.Y.) were maintained 5/cage in microisolator units on a standard laboratory diet (Teklad Labchow, Harlan Teklad, Madison, Wis.). Animals were housed under humidity- and temperature controlled conditions and the light/dark cycle was set at 12-hour intervals. Mice were quarantined at least 1 week prior to experimental manipulation. […] The mice were monitored until the tumor xenograft volumes reached 200-500 mm3.
The length (L) and width (W) of each tumor were measured with vernier calipers and the mouse body weight was determined every two to three days. […] Percent tumor growth inhibition (% TGI) was calculated as follows: (tumor volume of the control group at end of treatment—tumor volume of the treated group at the end of treatment)/tumor volume of the control group at the end of treatment. […] Complete tumor regression (CR) was defined as the tumor volume of the treated group at the end of treatment being less than 5% of the tumor volume of the treated group as the start of treatment. Statistical analyses of tumor volumes and mouse body weights were carried out with the Mann-Whitney Rank Sum Test. Plasma and tumor samples were obtained at 2 hours post final dose at each dose level, and the compound levels in plasma and tumor lysates were measured by LC-MS/MS

[11] = bid or qd oral dosing at 10 and 30 mg/kg
[12] = four weeks of additional treatment at 55 mg/kg qd po

Chain of CYP 1A2 (P05177 whole entry): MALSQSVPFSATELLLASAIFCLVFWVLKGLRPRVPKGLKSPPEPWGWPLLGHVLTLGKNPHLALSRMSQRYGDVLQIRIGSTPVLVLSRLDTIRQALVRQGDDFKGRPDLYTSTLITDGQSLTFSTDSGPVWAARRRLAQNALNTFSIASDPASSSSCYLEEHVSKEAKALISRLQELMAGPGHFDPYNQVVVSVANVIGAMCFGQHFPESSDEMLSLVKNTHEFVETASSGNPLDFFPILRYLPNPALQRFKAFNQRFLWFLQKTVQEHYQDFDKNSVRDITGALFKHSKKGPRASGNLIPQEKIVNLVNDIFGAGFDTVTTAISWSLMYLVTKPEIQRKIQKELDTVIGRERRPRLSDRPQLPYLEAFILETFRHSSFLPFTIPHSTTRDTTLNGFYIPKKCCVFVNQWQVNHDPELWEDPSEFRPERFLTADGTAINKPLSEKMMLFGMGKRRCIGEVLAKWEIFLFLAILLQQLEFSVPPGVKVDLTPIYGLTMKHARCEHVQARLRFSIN
Chain of hERG (Q12809 whole entry): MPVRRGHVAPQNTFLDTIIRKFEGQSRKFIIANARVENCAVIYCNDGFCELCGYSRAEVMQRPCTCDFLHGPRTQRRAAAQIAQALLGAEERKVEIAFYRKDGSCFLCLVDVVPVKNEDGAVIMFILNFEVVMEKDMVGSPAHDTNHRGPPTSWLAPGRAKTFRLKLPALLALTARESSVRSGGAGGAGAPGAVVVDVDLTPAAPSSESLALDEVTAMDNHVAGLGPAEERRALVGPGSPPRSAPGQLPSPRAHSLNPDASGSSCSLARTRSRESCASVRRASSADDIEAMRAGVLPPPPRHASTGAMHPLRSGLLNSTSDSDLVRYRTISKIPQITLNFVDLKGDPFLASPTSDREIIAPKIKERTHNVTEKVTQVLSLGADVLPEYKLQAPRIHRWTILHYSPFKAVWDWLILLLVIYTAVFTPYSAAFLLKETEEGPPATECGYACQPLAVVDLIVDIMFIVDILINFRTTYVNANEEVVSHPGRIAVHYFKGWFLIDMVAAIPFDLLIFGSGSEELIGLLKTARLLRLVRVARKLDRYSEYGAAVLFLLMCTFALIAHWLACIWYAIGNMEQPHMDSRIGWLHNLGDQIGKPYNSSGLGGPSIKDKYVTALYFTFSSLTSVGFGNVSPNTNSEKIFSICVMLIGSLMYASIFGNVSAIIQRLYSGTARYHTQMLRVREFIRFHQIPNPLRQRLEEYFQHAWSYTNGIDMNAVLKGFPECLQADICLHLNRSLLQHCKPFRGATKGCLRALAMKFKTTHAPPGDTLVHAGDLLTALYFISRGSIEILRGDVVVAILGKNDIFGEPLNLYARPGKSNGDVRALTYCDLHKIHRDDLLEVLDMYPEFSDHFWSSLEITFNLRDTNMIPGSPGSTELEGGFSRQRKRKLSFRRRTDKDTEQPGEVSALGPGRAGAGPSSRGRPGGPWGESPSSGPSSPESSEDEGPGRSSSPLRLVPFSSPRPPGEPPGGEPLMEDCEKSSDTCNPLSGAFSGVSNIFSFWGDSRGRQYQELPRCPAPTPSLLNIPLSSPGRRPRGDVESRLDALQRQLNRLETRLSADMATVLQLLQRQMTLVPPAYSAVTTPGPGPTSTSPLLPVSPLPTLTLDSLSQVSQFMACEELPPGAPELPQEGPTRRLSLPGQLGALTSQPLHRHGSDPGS
Chain of Muscarinic M4 (P08173 whole entry): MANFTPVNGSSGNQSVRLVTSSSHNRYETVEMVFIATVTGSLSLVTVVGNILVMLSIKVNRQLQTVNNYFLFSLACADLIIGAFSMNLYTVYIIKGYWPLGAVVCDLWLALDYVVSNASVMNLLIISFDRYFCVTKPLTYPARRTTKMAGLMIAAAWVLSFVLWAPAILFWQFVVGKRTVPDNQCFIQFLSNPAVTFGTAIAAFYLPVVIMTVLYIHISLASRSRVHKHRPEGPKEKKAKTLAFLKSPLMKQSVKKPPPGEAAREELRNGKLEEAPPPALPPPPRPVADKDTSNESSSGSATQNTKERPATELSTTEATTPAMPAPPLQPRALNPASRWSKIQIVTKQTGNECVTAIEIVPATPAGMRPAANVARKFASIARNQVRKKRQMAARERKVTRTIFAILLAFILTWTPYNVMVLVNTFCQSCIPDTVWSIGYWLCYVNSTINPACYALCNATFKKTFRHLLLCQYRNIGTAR
Chain of CYP 2C9 (P11712 whole entry): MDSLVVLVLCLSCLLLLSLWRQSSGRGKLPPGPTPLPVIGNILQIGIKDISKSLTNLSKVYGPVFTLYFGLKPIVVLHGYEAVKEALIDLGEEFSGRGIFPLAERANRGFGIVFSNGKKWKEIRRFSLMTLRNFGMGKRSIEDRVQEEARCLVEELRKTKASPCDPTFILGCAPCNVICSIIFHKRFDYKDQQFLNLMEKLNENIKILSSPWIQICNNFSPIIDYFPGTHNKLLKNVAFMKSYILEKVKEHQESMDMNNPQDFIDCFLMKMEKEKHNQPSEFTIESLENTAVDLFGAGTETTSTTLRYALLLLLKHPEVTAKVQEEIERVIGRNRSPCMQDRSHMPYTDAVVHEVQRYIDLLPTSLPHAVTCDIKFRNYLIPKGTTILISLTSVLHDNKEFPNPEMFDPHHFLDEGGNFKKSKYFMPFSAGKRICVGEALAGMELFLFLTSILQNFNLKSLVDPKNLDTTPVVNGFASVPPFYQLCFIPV
Chain of Neurokinin NK1 (P25103 whole entry): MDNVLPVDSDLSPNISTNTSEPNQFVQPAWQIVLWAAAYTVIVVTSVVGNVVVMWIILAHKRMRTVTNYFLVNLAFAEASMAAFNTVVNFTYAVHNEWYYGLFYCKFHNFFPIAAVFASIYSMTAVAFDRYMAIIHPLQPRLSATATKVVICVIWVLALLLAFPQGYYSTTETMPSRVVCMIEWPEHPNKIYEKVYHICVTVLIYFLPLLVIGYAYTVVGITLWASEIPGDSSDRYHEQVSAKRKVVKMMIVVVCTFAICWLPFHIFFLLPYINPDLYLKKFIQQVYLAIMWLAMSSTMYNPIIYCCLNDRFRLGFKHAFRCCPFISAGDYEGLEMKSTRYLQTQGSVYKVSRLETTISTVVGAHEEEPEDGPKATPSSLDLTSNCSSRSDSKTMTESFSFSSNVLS
Chain of CYP 2C19 (P33261 whole entry): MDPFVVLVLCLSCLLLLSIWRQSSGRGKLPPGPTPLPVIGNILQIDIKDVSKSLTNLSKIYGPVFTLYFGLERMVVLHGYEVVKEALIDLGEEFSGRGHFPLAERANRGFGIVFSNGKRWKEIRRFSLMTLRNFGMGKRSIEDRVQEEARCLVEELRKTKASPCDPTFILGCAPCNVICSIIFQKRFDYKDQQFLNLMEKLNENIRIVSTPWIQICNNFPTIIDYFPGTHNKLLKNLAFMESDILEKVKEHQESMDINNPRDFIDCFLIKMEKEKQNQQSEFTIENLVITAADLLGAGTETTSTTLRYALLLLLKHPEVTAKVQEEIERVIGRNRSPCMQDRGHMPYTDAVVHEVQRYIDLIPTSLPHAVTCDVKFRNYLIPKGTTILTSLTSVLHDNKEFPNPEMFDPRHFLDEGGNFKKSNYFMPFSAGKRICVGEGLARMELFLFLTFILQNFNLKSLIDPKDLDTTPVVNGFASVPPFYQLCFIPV
Chain of Muscarinic M3 (P20309 whole entry): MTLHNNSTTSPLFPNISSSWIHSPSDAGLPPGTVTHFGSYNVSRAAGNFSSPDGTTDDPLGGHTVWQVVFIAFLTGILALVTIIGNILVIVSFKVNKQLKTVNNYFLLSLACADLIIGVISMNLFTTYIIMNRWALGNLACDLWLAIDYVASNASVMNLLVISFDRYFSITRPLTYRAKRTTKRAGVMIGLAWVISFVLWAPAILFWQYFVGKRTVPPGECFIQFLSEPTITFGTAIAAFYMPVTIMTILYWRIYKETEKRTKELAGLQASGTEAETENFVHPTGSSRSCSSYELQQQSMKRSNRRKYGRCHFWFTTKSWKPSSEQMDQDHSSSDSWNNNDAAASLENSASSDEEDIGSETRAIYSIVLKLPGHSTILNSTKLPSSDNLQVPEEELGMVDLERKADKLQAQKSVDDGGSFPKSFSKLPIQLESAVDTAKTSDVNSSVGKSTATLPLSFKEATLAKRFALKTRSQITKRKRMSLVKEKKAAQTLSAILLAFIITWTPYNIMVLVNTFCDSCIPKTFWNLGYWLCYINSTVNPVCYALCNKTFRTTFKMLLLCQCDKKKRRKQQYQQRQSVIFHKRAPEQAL
Chain of Muscarinic M2 (P08172 whole entry): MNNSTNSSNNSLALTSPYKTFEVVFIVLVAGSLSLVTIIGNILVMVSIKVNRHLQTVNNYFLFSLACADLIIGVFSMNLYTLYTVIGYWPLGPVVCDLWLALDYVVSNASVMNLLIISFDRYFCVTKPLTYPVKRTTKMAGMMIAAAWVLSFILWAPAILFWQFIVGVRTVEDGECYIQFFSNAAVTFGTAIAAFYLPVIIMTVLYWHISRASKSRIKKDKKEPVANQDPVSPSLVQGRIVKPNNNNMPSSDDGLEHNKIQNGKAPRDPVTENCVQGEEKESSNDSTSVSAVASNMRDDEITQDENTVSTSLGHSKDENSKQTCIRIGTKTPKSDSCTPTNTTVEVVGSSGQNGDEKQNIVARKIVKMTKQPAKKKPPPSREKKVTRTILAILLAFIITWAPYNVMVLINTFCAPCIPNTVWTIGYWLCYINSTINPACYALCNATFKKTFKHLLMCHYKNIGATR

SMILES: CNC(=O)c1ccccc1Nc1nc(Nc2ccc3c(c2OC)CCC[C@H](N2CCN(CCO)CC2)C3)ncc1Cl [CEP-37440, 2-[[5-chloro-2-[[(6S)-6-[4-(2-hydroxyethyl)piperazin-1-yl]-1-methoxy-6,7,8,9-tetrahydro-5H-benzo[7]annulen-2-yl]amino]pyrimidin-4-yl]amino]-N-methyl-benzamide]
- Ki (Muscarinic M2): 2000 nM
- Ki (Muscarinic M3): 3500 nM
- Ki (Muscarinic M4): 460 nM
- Ki (Neurokinin NK1): 1200 nM
- IC50 (hERG): > 10000 nM
- solubility thermodynamic (Equilibrium solubility; pH 2, simulated gastric fluid, read-out: Equilibrium solubility at pH 2): > 1000 µg/mL
- solubility thermodynamic (Equilibrium solubility; pH 7.4, aqueous buffer, read-out: Equilibrium solubility at pH 7.4): 280 µg/mL (≈ 483 µM)
- half-life [1]: > 40 min
- half-life [2]: > 40 min
- IC50 (CYP 1A2): > 30000 nM
- IC50 (CYP 2C9): > 30000 nM
- IC50 (CYP 2C19): > 20000 nM
- Papp (Caco-2 permeability): 1.26 ×10⁻⁶ cm/s
- Protein binding (Protein binding, mouse): 85 % bound
- Protein binding (Protein binding, dog): 94 % bound
- Protein binding (Protein binding, human): 95 % bound
- bioavailability (Rat bioavailability): > 42%
- Mouse bioavailability (Mouse bioavailability; CD-1 mouse, CEP-37440 as amorphous HCl salt): 102%
- bioavailability (Mouse bioavailability; Scid, mouse, in vivo, po): 99%
- bioavailability (Monkey bioavailability; 10 mg/kg): 50%
- bioavailability (Monkey bioavailability; 30 mg/kg): 74%
- survival ([3]; 2.5, 7.5, 20 mg/kg/day, 4 weeks): All animals survived until their scheduled sacrifice
- ECG ([3]; 2.5, 7.5, 20.0 mg/kg/day, Days 3 and 27 of dosing, Day 28 of recovery): No drug-related changes in PR interval, QRS duration, QT interval, corrected QT (QTc) interval, RR interval, or heart rate
- body weight ([3]; dosing or recovery phase): no drug-related effects on body weight or body weight gain
- doses well tolerated, no drug-related effects ([3]; oral, 28 consecutive days): up to 20 mg/kg/day
- clinical pathology test results ([3]; up to 20.0 mg/kg/day): had no effect on clinical pathology test results
- pulmonary edema ([3]; up to 20 mg/kg/day, 28 days): no evidence whatsoever of pulmonary edema
- anti-tumor efficacy ([4]; 10 mg/kg or lower, bid, po): No significant anti-tumor activity
- anti-tumor efficacy ([4]; 30 mg/kg bid po): complete or near complete tumor regression
- anti-tumor efficacy ([4]; 30 mg/kg, qd, po): partial tumor regression
- anti-tumor efficacy ([4]; 55 mg/kg qd po): complete or near complete tumor regression
- tolerability, body weight ([4]; all dosing regimens): well tolerated with no overt toxicity and no significant compound-related body weight loss
- plasma level at 2 h post final dosing versus 2 h post single oral dose [4, 11]: 2-3 fold
- tumor level at 2 h post final dosing versus 2 h post single oral dose [4, 11]: more than 10 fold
- anti-tumor efficacy ([5]; 30 mg/kg bid, 12 days): complete or near complete tumor regression
- anti-tumor efficacy ([5]; 30 mg/kg qd): significant anti-tumor activity
- anti-tumor efficacy ([5]; 55 mg/kg, qd, 12 days): complete or near complete tumor regression
- tolerability, body weight ([5]; all dosing regimens): well tolerated with no overt toxicity and no significant body weight loss
- incidence of partial tumor regressions ([6]; 30 mg/kg bid, 28-day period): 20%
- incidence of partial tumor regressions ([6]; 55 mg/kg bid, 28-day period): 30%
- anti-tumor efficacy ([6]; 28-day period): tumor stasis
- tolerability ([6]; all dosing regimens): well-tolerated with no morbidity or mortality observed
- tumor pharmacodynamic inhibition of FAK activation ([6]; no effect on total FAK expression levels): clear tumor pharmacodynamic effect for inhibition of FAK activation
- TGI ([7]; 30 mg/kg bid, day 28): 60%
- TGI ([7]; 55 mg/kg bid, day 28): 80%
- incidence of complete tumor regressions ([7]; 55 mg/kg bid, day 28): 30%
- incidence of partial tumor regressions ([7]; 55 mg/kg bid, day 28): 30%
- incidence of tumor regressions ([7]; 55 mg/kg bid, day 28): 60%
- tolerability, body weight ([7]; mouse, in vivo): well tolerated, with no overt toxicity or significant body weight loss observed
- incidence of complete tumor regressions ([8]; 36 day period, oral): 10%
- tumor growth inhibition (TGI) ([8]; 36 day period, oral, equivalent doses of both compounds): 55%
- tolerability, body weight ([8]; all dosing regimens): well tolerated with no overt toxicity or significant body weight loss observed
- doses with drug-related adverse findings (body weight, bone marrow, spleen, thymus, lymph node, lung) ([9]; daily gavage): ≥ 30 mg/kg/day
- dose well tolerated ([9]; rat, in vivo): 10 mg/kg/day
- NOAEL at 4 weeks (in vivo): 10 mg/kg/day
- mice with sustained tumor regressions, no tumor re-emergence ([10]; 40 days following cessation of treatment): 100%
- animals with sustained complete tumor regression [10, 12]: 100%
- tolerability, body weight [10, 12]: well tolerated with no overt toxicity and no significant body weight loss
